According to PubChem BioAssay (NCI):
Values joined by “and” are separate entries in the source; they are usually repeats but may differ in a detail not shown here. Equal entries are not always repeated.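 Test compounds were applied to cells in 96-well plates for 48 hours at 5 doses. Abbreviation: GI50, concentration required for 50% inhibition of growth. Definition used: TGI = concentration required for complete inhibition of growth.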

Legend:
Test in all cases: NCI anticancer screen, dose series, 48 h
[1] = tested on: EKVX NSCLC
[2] = tested on: KM12 colon
[3] = tested on: MALME-3M melanoma
[4] = tested on: MDA-MB-435
[5] = tested on: OVCAR-8 ovarian
[6] = tested on: PC-3 prostate
[7] = tested on: SK-MEL-2 melanoma
[8] = tested on: SK-OV-3 ovarian
[9] = tested on: SNB-75 CNS
[10] = tested on: UACC-62 melanoma

Row | SMILES | GI50 [1] | TGI [1] | GI50 [2] | TGI [2] | GI50 [3] | TGI [3] | GI50 [4] | TGI [4] | GI50 [5] | TGI [5] | GI50 [6] | TGI [6] | GI50 [7] | TGI [7] | GI50 [8] | TGI [8] | GI50 [9] | TGI [9] | GI50 [10] | TGI [10]
1 | CCC[C@H](Nc1nc(-c2ccc(NC(=O)NCC)c(OC)c2)ncc1C)c1cccnc1 | 0.0621 µM | > 100 µM | 0.0337 µM | 0.225 µM | 13.8 µM | 49.1 µM | 0.0219 µM | 0.0533 µM | 0.0369 µM | 14.6 µM | 0.047 µM | > 55.6 µM | 0.0477 µM | 20.7 µM | 0.0365 µM | 15 µM | 0.0489 µM | 22.8 µM | 0.0572 µM | > 48.5 µM
2 | c1cncc(-c2cc(-c3cc(-c4cccnc4)n[nH]3)[nH]n2)c1 | – | > 100 µM | – | > 100 µM | – | > 100 µM | – | > 100 µM | – | > 100 µM | – | > 100 µM | – | > 100 µM | – | > 100 µM | – | > 100 µM | – | > 100 µM
3 | CCC[CH2][Sn]([CH2]CCC)([O]C(=O)c1cccc(F)c1F)[O][Sn]([CH2]CCC)([CH2]CCC)[O]C(=O)c1cccc(F)c1F | 0.675 µM | 2.04 µM | 0.857 µM | 2.22 µM | 0.118 µM | 0.284 µM | 0.13 µM | 1.09 µM | 0.285 µM | 1.16 µM | 0.59 µM | 1.86 µM | 0.166 µM | 0.447 µM | 0.915 µM | 2.23 µM | 0.317 µM | 1.52 µM | 0.173 µM | 0.423 µM
4 | O=C(/C=C/C12c3ccccc3C(c3ccccc31)C1C(=O)NC(=O)C12)c1ccco1 (centres undefined) | 3.16 µM | 11 µM | 2.36 µM | 5.99 µM | 2.35 µM | 6.72 µM | 2.35 µM | 5.84 µM | 3.12 µM | 12.5 µM | 1.74 µM | 5 µM | 2.19 µM | 4.44 µM | 4.01 µM | 12.8 µM | 3.44 µM | 12.2 µM | 2.16 µM | 4.9 µM
5 | COc1cc(/C=C/C(=O)CC(=O)/C=C/c2ccc(OC(=O)CCNC34CC5CC(CC(C5)C3)C4)c(OC)c2)ccc1OC(=O)CCNC12CC3CC(CC(C3)C1)C2 | 4.41 µM | 12.9 µM | 2.95 µM | 7.8 µM | 5.28 µM | 17.9 µM | 2.08 µM | 6.53 µM | 3.71 µM | 13.4 µM | 4.13 µM | 21.1 µM | 4.48 µM | 16.3 µM | 6.75 µM | 27.2 µM | 4.85 µM | 22.5 µM | 3.5 µM | 13 µM
6 | CN1CCN(Cc2ccc(NC(=O)c3[nH]ncc3Nc3ccnc4ccsc34)cc2)CC1 | 2.74 µM | 9.81 µM | 2.35 µM | 11.2 µM | 3.44 µM | 13.7 µM | 3.22 µM | 17.9 µM | 3.63 µM | 16.4 µM | 3.25 µM | 20.2 µM | 3.86 µM | 14.7 µM | 1.05 µM | 23.5 µM | 0.222 µM | 3.54 µM | 11.2 µM | 30.2 µM
7 | Cc1ccc(-c2nc3nc(-c4ccc(Cl)cc4)nc(N4CCCNCC4)c3o2)cc1 | 1.75 µM | 3.27 µM | 1.93 µM | 3.81 µM | 1.7 µM | 3.17 µM | 1.81 µM | 3.25 µM | 2.15 µM | 4.77 µM | 1.6 µM | 3.14 µM | 2.04 µM | 3.94 µM | 1.75 µM | 3.29 µM | 1.2 µM | 2.47 µM | 1.74 µM | 3.24 µM
8 | CC1=C([Se]CC(OC(=O)[C@@H](CSSC(C)(C)C)NC(=O)C(C)(C)C)C(=O)NCCCCCC(=O)OCc2ccccc2)C(=O)c2ccccc2C1=O (some centres undefined) | 2.24 µM | 5.41 µM | 1.8 µM | 3.5 µM | 2.49 µM | 5.15 µM | 2.28 µM | 5.55 µM | 2.01 µM | 3.78 µM | 1.5 µM | 3.63 µM | 2.26 µM | 5.06 µM | 1.56 µM | 2.92 µM | 1.37 µM | 2.66 µM | 1.96 µM | 3.99 µM
9 | CC1=Cc2cc3[n-]c(cc4nc(cc5[n-]c(cc1n2)c(C)c5CCC(=O)O)C(CCC(=O)O)=C4C)cc3C.[Cu+2] | > 66.4 µM | > 100 µM | > 92.2 µM | > 100 µM | > 1 µM and 7.39 µM | > 1 µM and 18.6 µM | 55.1 µM | > 100 µM | > 1 µM and 19.6 µM | > 1 µM and 54.7 µM | 12.9 µM | 29.5 µM | > 1 µM and 10.9 µM | > 81.7 µM | > 1 µM and 18.8 µM | > 1 µM and 41.9 µM | > 1 µM and 8.39 µM | > 1 µM and 18.7 µM | > 1 µM and 6.04 µM | > 1 µM and 15.8 µM
10 | C=C1C(=O)O[C@H]2[C@H]1CC/C(COC(=O)NCCc1c[nH]c3ccccc13)=C\CC[C@@]1(C)O[C@@H]21 | 1.51 µM | 3.57 µM | 5.41 µM | 21.4 µM | 1.94 µM | 3.82 µM | 1.62 µM | 3.9 µM | 1.86 µM | 5.21 µM | 3.05 µM | 13 µM | 5.53 µM | 20.1 µM | 12.5 µM | 25.1 µM | 8.45 µM | 21.8 µM | 1.47 µM | 3.2 µM
11 | COc1ccc2c(c1)/C(=C/c1c(-c3ccc(C)cc3)nc3sc(C)cn13)C(=O)N2 | 9.62 µM | > 100 µM | 23.1 µM | > 100 µM | 25.2 µM | > 100 µM | 19 µM | > 100 µM | 12.4 µM | > 100 µM | 4.61 µM | > 100 µM | 14.6 µM | 47.7 µM | 23.9 µM | > 100 µM | 11.8 µM | > 100 µM | 13.1 µM | 32.5 µM
12 | COc1cc2c3c(n(CCCn4ccnc4)c(=O)c2cc1OC)-c1ccccc1C3=O | 0.833 µM | > 100 µM | 0.126 µM | 5.03 µM | 1.06 µM | > 60.8 µM | 0.0417 µM | 0.779 µM | 0.0584 µM | 4.84 µM | 0.169 µM | > 100 µM | 0.927 µM | 17.3 µM | 1.13 µM | – | 0.0681 µM | 4.33 µM | < 0.0133 µM | 0.0906 µM
13 | O=C(CSc1nc2sc3c(c2c(=O)n1-c1ccccc1)CCCCC3)N/N=C/c1ccc(F)cc1 | 11.3 µM | 41.7 µM | 6 µM | > 100 µM | 1.67 µM | 5.86 µM | 10.3 µM | > 100 µM | 1.58 µM | 5.19 µM | 4.91 µM | 26.8 µM | 14.4 µM | 28.8 µM | 3.47 µM | 11.8 µM | 1.85 µM | 4.93 µM | 11.4 µM | 27.1 µM
14 | C/C=C/C/C=C/CCC(=O)C1OC1C(N)=O (centres undefined) | – | 36.4 µM | – | 29.5 µM | – | 32.9 µM | – | 28.3 µM | – | 26.7 µM | – | 28.7 µM | – | 32.5 µM | – | 81.8 µM | – | 27.8 µM | – | 29.3 µM
15 | CCOC(=O)c1ccc(C(O)CC(=O)OC(C)(C)C)[nH]1 (centres undefined) | 22.7 µM | 49.6 µM | 24 µM | 61.4 µM | 0.692 µM | 24.8 µM | 24.1 µM | 62.2 µM | 56.7 µM | > 100 µM | 21.3 µM | 62 µM | 21.3 µM | 41.3 µM | 32.1 µM | > 100 µM | 37.2 µM | > 100 µM | 26.5 µM | 81.3 µM
16 | O=C1OC2(c3ccccc31)c1cc(I)c(O)c(I)c1Oc1c2cc(I)c(O)c1I | – | > 100 µM | – | 43.1 µM | – | > 100 µM | – | > 100 µM | – | > 100 µM | – | > 100 µM | – | > 100 µM | – | > 100 µM | – | > 100 µM | – | > 100 µM
17 | C[C@]12CC[C@H]3[C@@H](CC=C4C[C@@H](O)CC[C@@]43C)[C@@H]1C/C(=C\c1cccc(OCCCn3ccnc3)c1)[C@@H]2O | 13.5 µM | 33.9 µM | 11.9 µM | 28.7 µM | 15.7 µM | 35.9 µM | 9.99 µM | 42.6 µM | 14.4 µM | 43.1 µM | 9.48 µM | 56.6 µM | 17.4 µM | 33.6 µM | 16.2 µM | 32.7 µM | 14.1 µM | 28.8 µM | 13.2 µM | 29 µM
18 | COc1cc(C(=O)O)ccc1NC(=O)[C@@H]1N[C@@H](CC(C)(C)C)[C@](C#N)(c2ccc(Cl)cc2F)[C@H]1c1cccc(Cl)c1F | 6.51 µM | 24 µM | 2.58 µM | > 24.2 µM | 0.0448 µM | 8.27 µM | 2.82 µM | 13.1 µM | 4.08 µM | 23 µM | 2.91 µM | > 42.6 µM | 2.96 µM | 10 µM | 7.02 µM | 21.3 µM | 3.35 µM | 20.9 µM | 0.0909 µM | 2.13 µM
